# Test results: a melting point compilation (Tetko et al.; mined from patent text by program, amines drawn as free bases though some values may be those of a salt)
row,Compound,melting point [°C]
1,c1ccc(COc2ccc3c(c2)N=C(NCc2cccnc2)c2ccccc2N3)cc1,196 to 197
2,COc1ccc(Br)c2cc(C(=O)c3cccc(C(F)(F)F)c3)oc12,78 to 79
3,O=C(CCNC(=O)c1ccccc1C(=O)O)NO,58 to 65
4,N=C(NCCNC(c1ccccc1)(c1ccccc1)c1ccccc1)N[N+](=O)[O-],217 to 219
5,COc1ccccc1NC(=O)Nc1ccc(CC(=O)O)cc1,165 to 168
6,O=Cc1ccc2cc[nH]c2c1,126 to 128
7,CN(C)N(C)C(=O)NC1c2ccccc2Oc2ccccc21,141 to 142
8,N#Cc1c(Cl)cccc1C(F)(F)F,45 to 47
9,COc1ccc(C(=O)c2c[nH]c(=O)[nH]2)cc1OC,257 to 259
10,CCOC(=O)N1C=CC(c2c(-c3ccc(F)cc3)nc3c(C)c(C)c(Cl)nn23)C=N1 (stereo not given),159 to 161
11,C=CCn1cnc2c1c(=O)n(CCC(C)C(C)=O)c(=O)n2C (stereo not given),73 to 74
12,CCOc1ccc(F)cc1OCCN1C(=O)c2ccccc2C1=O,119 to 121
13,O=C(N(CCN(C(=O)C(F)(F)F)c1cccc2[nH]ccc12)Cc1ccccc1)C(F)(F)F,174 to 177
14,CCCc1nc2c(N)nc3ccccc3c2n1CCS(C)(=O)=O,212 to 214
15,Nc1sc2c(c1C(=O)c1ccc3ccccc3c1)CCN(Cc1ccc(Cl)cc1)C2,105 to 108
16,Cn1cc(-c2ccccc2)c(=O)c(-c2c(Cl)cccc2Cl)c1,223 to 226
17,O=CNCc1c(Cl)ccc2cc(Cl)cnc12,110
18,COc1ccccc1OC(c1ccccc1)C(O)CN (stereo not given),80 to 110
19,Cc1nc(NC(=O)NS(=O)(=O)C(Cl)C(C)Cl)nc(C)c1Cl (stereo not given),161 to 162
20,CCCC[C@@H](NC(=O)[C@H](Cc1ccc(O)cc1)NC(=O)OC(C)(C)C)C(=O)NCC(=O)OCc1ccccc1,122
21,O=CN1C(=O)c2ccccc2OC1C(Cl)(Cl)Cl (stereo not given),114
22,O=C(O)Cc1ccc2c3c(cccc13)C(c1ccccc1)C2 (stereo not given),200
23,CN(C)c1ccc(-c2cnc3[nH]cc(C(=O)C4(C)CCCCC4)c3n2)cc1,272 to 274
24,C=C(c1ccccc1)c1ccc(NC(=S)NC(=O)OC)c(NC(=S)NC(=O)OC)c1,182 to 184
25,CCOC(=O)/C=C(C)/C=C/C=C(\C)C1=Cc2cc(C(C)(C)C)ccc2OC1,129

row,Compound,melting point [°C]
1,CNc1ccc2c(c1)N(C)C(=O)N(c1ccc(Cl)cc1)S2(=O)=O,207 to 209
2,CC(=O)OC1CSC(Oc2cccc(-c3cc(Cl)ccn3)c2)C(OC(C)=O)C1OC(C)=O (stereo not given),152
3,Cc1cc(O)cc(C)c1[N+](=O)[O-],106 to 108
4,COC(=O)CN1CCN2C(Cc3cc(OC)c(OC)cc3C2c2ccccc2)C1 (stereo not given),110 to 113
5,O=S1(=O)c2ccccc2-c2[nH]nc(-c3ccccc3)c21,266 to 268
6,COc1ccc(C(=O)Nc2ccc3ccc(OCCN(C)C)nc3n2)cc1,77 to 80
7,NC(=S)Nc1ccccc1-c1ccc(Cl)cc1,175 to 177
8,Cc1ccc(-c2ccc(C(=O)Nc3ccc4nc(CN5CCCC5)ccc4c3)cc2)cc1,192 to 193
9,C=CCC(C(=O)NC)c1ccccc1 (stereo not given),97 to 99
10,COc1cc(OC)c(C(=O)n2cccc2Br)cc1OC,120 to 121
11,CC(NC(Nc1cc(Cl)cc(Cl)c1)=C(C#N)S(=O)(=O)c1ccc(Cl)cc1)C(C)(C)C (stereo not given),163 to 169
12,CCCCc1c(/C=C/C(=O)Oc2ccc([N+](=O)[O-])cc2)ccc2c(OC)cccc12,115 to 116
13,CC1(C)OC(=S)Nc2ccc(-c3cc(F)cc(Cl)c3)cc21,204 to 205
14,CCC(O)(c1c(C(C)C)nn2ccccc12)C(C)C (stereo not given),96 to 98
15,C=CC1CC2=CC(=O)CCC2C2CCC3(CC)C(O)CCC3C12 (stereo not given),155 to 156
16,CC(=O)Oc1cc(N2C(=O)C=CC2=O)ccc1C(=O)O,110 to 119
17,CCCCc1ncc(CC(=O)NCC(=O)O)n1Cc1ccccc1Cl,84 to 88
18,CC(C)OC(=O)CCC1CCCCC1(c1ccc(O)c(C(C)(C)C)c1)c1ccc(O)c(C(C)(C)C)c1 (stereo not given),172
19,CCc1cn(Cc2ccccc2)c(=O)[nH]c1=O,154 to 155
20,NC(=O)C1CCc2cc3c(nc21)CCC3 (stereo not given),188
21,Cc1cccc(C)c1N1CC(=O)N(c2c(C)cccc2C)CC1=O,233 to 235
22,Cc1cc(Br)c2[nH]c(=O)n(CCCN3CC=C(c4ccc(Cl)cc4)CC3)c(=O)c2c1,212 to 214
23,Cn1c(-c2ccc(OCC(O)CNC(C)(C)C)cc2)cc2ccccc2c1=O (stereo not given),130 to 132
24,O=C(c1ccc(F)cc1)N1CCC[C@H](c2noc(-c3ccc(F)cn3)n2)C1,108 to 110
25,Oc1cc2c(-c3ccccc3)csc2c(Cl)c1Cl,157 to 159

row,Compound,melting point [°C]
1,Oc1cccc(-c2ccncc2)c1,> 300
2,CCCOc1ccc(S(=O)(=O)N(C)C)cc1-c1ccc(C#N)c(=O)[nH]1,225 to 226
3,CC(C)n1nc(-c2c(-c3ccccc3)nc(N)nc2-n2ccnc2)ccc1=O,255 to 258
4,O=S(=O)(CC(Cl)(c1ccccc1)c1cc(Cl)ccc1Cl)CC(Cl)(c1ccccc1)c1cc(Cl)ccc1Cl (stereo not given),136
5,CC(=O)NCC1CC1c1cccc2nscc12 (stereo not given),96 to 97
6,CC(C)(C)C(=O)Oc1ccc(C(=O)NNC(=O)c2occ(-c3ccccc3)c2-c2ccccc2)cc1C#N,152 to 154
7,CCCNS(=O)(=O)c1cc2cc(P(=O)(OCC)OCC)c(=O)[nH]c2cc1Cl,> 300
8,O=C1CCC(C(=O)N2CCC(Cc3ccccc3)CC2)N1 (stereo not given),160 to 161
9,CC(C)(C)c1cc(CN(c2cccnc2)S(=O)(=O)c2ccccc2Br)cc(C(C)(C)C)c1O,105 to 107
10,Cc1noc(NS(=O)(=O)c2ccccc2-c2ccc(CC(C)C)cc2NC=O)c1C,87 to 95
11,CNS(=O)(=O)c1cc(-c2ccc(C(F)(F)F)n(C)c2=O)c(F)cc1Cl,150 to 151
12,Cc1c(-c2ccc(O)cc2)n(Cc2ccc(OCCN3CC4(C)CC3CC(C)(C)C4)cc2)c2ccc(O)cc12 (stereo not given),98 to 100
13,CC(C)(C)c1cc(Cn2c(=O)n(Cc3cc(C(C)(C)C)c(O)c(C(C)(C)C)c3)c(=O)n(Cc3cc(C(C)(C)C)c(O)c(C(C)(C)C)c3)c2=O)cc(C(C)(C)C)c1O,218 to 219
14,OCc1cc(Cl)cc(CO)c1O,161 to 163
15,O=C(O)C(CCCc1ccccc1)NS(=O)(=O)c1ccc(N2CCC(c3ccccc3)CC2)cc1 (stereo not given),59 to 62
16,CCONCCCC=C1C(=O)CC(c2ccc(Cl)cc2)CC1=O (stereo not given),77
17,Cc1nc2c(F)c(F)cc(F)c2s1,91 to 92
18,CSc1nc(Cl)cc2cnc(C)n12,153 to 155
19,Cc1ccc(Cl)c(Nc2ccccc2C=C2SC(=N)NC2=O)c1Cl,235 to 238
20,COc1cc2c(c(OC)c1)C1CCC3(C)C(=O)CCC3C1CC2 (stereo not given),132 to 133
21,O=C1c2ccccc2C(=O)c2c(NC3CCCCC3)cccc21,145
22,CSc1nnc2c3cnn(C)c3ncn12,204 to 206
23,CC(C)Oc1ccccc1C1(OCC(=O)O)C(=O)Nc2ccc(Cl)cc21 (stereo not given),225 to 228
24,N#Cc1ccc(-c2ncc(C(F)(F)F)cc2Cl)cc1O,155 to 157
25,CCOC(=O)Cc1ccc(NC(=O)C(CCO)NS(=O)(=O)c2ccc(Cl)cc2)cc1 (racemic),164 to 167

row,Compound,melting point [°C]
1,CCOC(=O)c1cnn2c1c(OCC)nc1ccccc12,88 to 90
2,Cc1cccc(Nc2cc(Cl)nc(SCC(=O)NC3CCCCC3)n2)c1C,156 to 158
3,C=CCNc1nc(C=O)cs1,106 to 107
4,CC(C)Oc1c(C(N)=O)oc2ccc(OCc3ccccc3)cc12,158 to 160
5,COc1ccc(CCN(O)C(=O)C(N)=O)cc1OC,143 to 144
6,CN([C@H]1CC[C@H](Nc2nccc(-n3nnc4ccccc43)n2)CC1)S(C)(=O)=O,250 to 252
7,O=C1CCN(CCCN2c3cccc4cccc(c34)S2(=O)=O)CC1,108
8,C=Cc1ncn2c1CN(C)C(=O)c1c(Cl)cccc1-2,205 to 207
9,COC(=O)c1ccnc(-c2cccc3cc(Cc4cccc(C(F)(F)F)c4)sc23)c1,106 to 107
10,COc1cc(C2(OC)CCOCC2)ccc1OCc1ccc2ccccc2c1,129
11,CCC1(COc2ccc(C(=O)O)cc2)COC1,128
12,O=C(O)C(=O)c1ccc(O)c([N+](=O)[O-])c1,139 to 140
13,O=C(NC(=O)c1ccccc1Cl)Nc1cc(Cl)c2c(c1)C(F)(F)C(F)(F)S2,140 to 142
14,CS(=O)(=O)NCCCCn1c(CC2CC2)nc2c(N)nc3ccccc3c21,200 to 201
15,CCN1C(=O)C(C(=O)Nc2ccc(F)cc2F)c2cc(C(C)=O)ccc21 (stereo not given),160 to 161
16,COC(=O)c1ccc(OCC(C)=O)c(C(=O)OC)c1,115 to 116
17,O=C(Nc1ccccc1)Nc1nc(=O)n(S(=O)(=O)c2ccccc2)cc1F,210 to 214
18,FC1(F)N=c2cc3c(cc2=N1)OC(Br)O3,160 to 164
19,Cc1ccccc1N1C(=O)CN2C(=O)CCC21 (stereo not given),138 to 139
20,"CCCc1nn(C)c2c(=O)n(CCOc3ccc(CC(OCC)C(=O)O)cc3)c(CC)nc12 (single isomer, unassigned; (+))",144 to 145
21,CCOC(=O)C1=C(COCc2nc(CCN)cs2)NC(C)=C(C(=O)OC)C1c1cccc(Cl)c1Cl (stereo not given),110 to 112
22,CCc1ccccc1-n1c(=O)[nH]c2c(C(N)=O)nc(-c3cccc(O)c3)nc21,355 to 357
23,COc1cc(CC(N)=O)c(CCc2ccc(O)c(OCc3ccccc3)c2)c(OC)c1OC,139 to 141
24,COc1ccc2[nH]c3c(C(=O)Nc4ccc(CCCCN(C)Cc5ccc(OC)c(OC)c5)cc4)cccc3c(=O)c2c1,172
25,CN(C)Cc1ccc(CSCCNC2=NS(=O)(=O)N=C2N(C)C)o1,139 to 142
